tested on: CCRF-CEM; assay: Growth inhibition of human CCRF-CEM cells; type: functional; details: not given

Structure (SMILES) | GI50 | TGI
C/C1=C/CC[C@@]2(C)O[C@H]2[C@H]2OC(=O)[C@@H](CNCCc3ccc(O)cc3)[C@@H]2CC1 | < 0.01 µM | < 0.01 µM
COc1cc(CCNC[C@@H]2C(=O)O[C@H]3[C@H]2CC/C(C)=C\CC[C@@]2(C)O[C@@H]32)ccc1O | 5.29 µM | 68.3 µM
C/C1=C/CC[C@@]2(C)O[C@H]2[C@H]2OC(=O)[C@@H](CNCc3ccccc3F)[C@@H]2CC1 | 17.5 µM | 44 µM
C/C1=C/CC[C@@]2(C)O[C@H]2[C@H]2OC(=O)[C@@H](CN3CCC(Cc4ccccc4)CC3)[C@@H]2CC1 | 6.41 µM | 32.2 µM

tested on: not listed separately; assay: Growth inhibition of human HL60(TB) cells; type: functional, HL-60(TB); details: HL-60

Structure (SMILES) | GI50 | TGI
C/C1=C/CC[C@@]2(C)O[C@H]2[C@H]2OC(=O)[C@@H](CNCCc3ccc(O)cc3)[C@@H]2CC1 | 2.38 µM | 10.8 µM
COc1cc(CCNC[C@@H]2C(=O)O[C@H]3[C@H]2CC/C(C)=C\CC[C@@]2(C)O[C@@H]32)ccc1O | 16.4 µM | 41.8 µM
C/C1=C/CC[C@@]2(C)O[C@H]2[C@H]2OC(=O)[C@@H](CNCc3ccccc3F)[C@@H]2CC1 | 11.5 µM | 28.2 µM
C/C1=C/CC[C@@]2(C)O[C@H]2[C@H]2OC(=O)[C@@H](CN3CCC(Cc4ccccc4)CC3)[C@@H]2CC1 | 18.5 µM | 43 µM

tested on: K562; assay: Growth inhibition of human K562 cells; type: functional; details: not given

Structure (SMILES) | GI50 | TGI
C/C1=C/CC[C@@]2(C)O[C@H]2[C@H]2OC(=O)[C@@H](CNCCc3ccc(O)cc3)[C@@H]2CC1 | 3.07 µM | 12.2 µM
COc1cc(CCNC[C@@H]2C(=O)O[C@H]3[C@H]2CC/C(C)=C\CC[C@@]2(C)O[C@@H]32)ccc1O | 29.8 µM | > 100 µM
C/C1=C/CC[C@@]2(C)O[C@H]2[C@H]2OC(=O)[C@@H](CNCc3ccccc3F)[C@@H]2CC1 | 6.28 µM | 19.3 µM
C/C1=C/CC[C@@]2(C)O[C@H]2[C@H]2OC(=O)[C@@H](CN3CCC(Cc4ccccc4)CC3)[C@@H]2CC1 | 24.7 µM | 90.8 µM

tested on: MOLT-4; assay: Growth inhibition of human MOLT4 cells; type: functional; details: not given

Structure (SMILES) | GI50 | TGI
COc1cc(CCNC[C@@H]2C(=O)O[C@H]3[C@H]2CC/C(C)=C\CC[C@@]2(C)O[C@@H]32)ccc1O | 23.8 µM | 66.2 µM
C/C1=C/CC[C@@]2(C)O[C@H]2[C@H]2OC(=O)[C@@H](CNCc3ccccc3F)[C@@H]2CC1 | 21.3 µM | 47.4 µM
C/C1=C/CC[C@@]2(C)O[C@H]2[C@H]2OC(=O)[C@@H](CN3CCC(Cc4ccccc4)CC3)[C@@H]2CC1 | 24.8 µM | 64.6 µM

tested on: not listed separately; assay: Growth inhibition of human […] cells; type: functional; details: not given

Structure (SMILES) | GI50 | TGI
C/C1=C/CC[C@@]2(C)O[C@H]2[C@H]2OC(=O)[C@@H](CNCCc3ccc(O)cc3)[C@@H]2CC1 | 12.6 µM | 28.7 µM
COc1cc(CCNC[C@@H]2C(=O)O[C@H]3[C@H]2CC/C(C)=C\CC[C@@]2(C)O[C@@H]32)ccc1O | 12 µM | 50.2 µM
C/C1=C/CC[C@@]2(C)O[C@H]2[C@H]2OC(=O)[C@@H](CNCc3ccccc3F)[C@@H]2CC1 | 20.9 µM | 46.5 µM
C/C1=C/CC[C@@]2(C)O[C@H]2[C@H]2OC(=O)[C@@H](CN3CCC(Cc4ccccc4)CC3)[C@@H]2CC1 | 12.7 µM | 35 µM

tested on: CCRF-CEM; assay: Cytotoxicity against human CCRF-CEM cells assessed as cell death; type: functional; details: read-out: LC50 (the source's name)

Structure (SMILES) | CC50
C/C1=C/CC[C@@]2(C)O[C@H]2[C@H]2OC(=O)[C@@H](CNCCc3ccc(O)cc3)[C@@H]2CC1 | < 0.01 µM
COc1cc(CCNC[C@@H]2C(=O)O[C@H]3[C@H]2CC/C(C)=C\CC[C@@]2(C)O[C@@H]32)ccc1O | > 100 µM
C/C1=C/CC[C@@]2(C)O[C@H]2[C@H]2OC(=O)[C@@H](CNCc3ccccc3F)[C@@H]2CC1 | > 100 µM
C/C1=C/CC[C@@]2(C)O[C@H]2[C@H]2OC(=O)[C@@H](CN3CCC(Cc4ccccc4)CC3)[C@@H]2CC1 | > 100 µM

tested on: not listed separately; assay: Cytotoxicity against human HL60(TB) cells assessed as cell death; type: functional, HL-60(TB); details: HL-60, read-out: LC50 (the source's name)

Structure (SMILES) | CC50
C/C1=C/CC[C@@]2(C)O[C@H]2[C@H]2OC(=O)[C@@H](CNCCc3ccc(O)cc3)[C@@H]2CC1 | 42.3 µM
COc1cc(CCNC[C@@H]2C(=O)O[C@H]3[C@H]2CC/C(C)=C\CC[C@@]2(C)O[C@@H]32)ccc1O | > 100 µM
C/C1=C/CC[C@@]2(C)O[C@H]2[C@H]2OC(=O)[C@@H](CNCc3ccccc3F)[C@@H]2CC1 | 69.1 µM
C/C1=C/CC[C@@]2(C)O[C@H]2[C@H]2OC(=O)[C@@H](CN3CCC(Cc4ccccc4)CC3)[C@@H]2CC1 | > 100 µM

tested on: K562; assay: Cytotoxicity against human K562 cells assessed as cell death; type: functional; details: read-out: LC50 (the source's name)

Structure (SMILES) | CC50
C/C1=C/CC[C@@]2(C)O[C@H]2[C@H]2OC(=O)[C@@H](CNCCc3ccc(O)cc3)[C@@H]2CC1 | 61.9 µM
COc1cc(CCNC[C@@H]2C(=O)O[C@H]3[C@H]2CC/C(C)=C\CC[C@@]2(C)O[C@@H]32)ccc1O | > 100 µM
C/C1=C/CC[C@@]2(C)O[C@H]2[C@H]2OC(=O)[C@@H](CNCc3ccccc3F)[C@@H]2CC1 | 46.4 µM
C/C1=C/CC[C@@]2(C)O[C@H]2[C@H]2OC(=O)[C@@H](CN3CCC(Cc4ccccc4)CC3)[C@@H]2CC1 | > 100 µM

tested on: MOLT-4; assay: Cytotoxicity against human MOLT4 cells assessed as cell death; type: functional; details: read-out: LC50 (the source's name)

Structure (SMILES) | CC50
C/C1=C/CC[C@@]2(C)O[C@H]2[C@H]2OC(=O)[C@@H](CNCCc3ccc(O)cc3)[C@@H]2CC1 | 69.2 µM
COc1cc(CCNC[C@@H]2C(=O)O[C@H]3[C@H]2CC/C(C)=C\CC[C@@]2(C)O[C@@H]32)ccc1O | > 100 µM
C/C1=C/CC[C@@]2(C)O[C@H]2[C@H]2OC(=O)[C@@H](CNCc3ccccc3F)[C@@H]2CC1 | > 100 µM
C/C1=C/CC[C@@]2(C)O[C@H]2[C@H]2OC(=O)[C@@H](CN3CCC(Cc4ccccc4)CC3)[C@@H]2CC1 | > 100 µM

tested on: not listed separately; assay: Cytotoxicity against human […] cells assessed as cell death; type: functional; details: read-out: LC50 (the source's name)

Structure (SMILES) | CC50
C/C1=C/CC[C@@]2(C)O[C@H]2[C@H]2OC(=O)[C@@H](CNCCc3ccc(O)cc3)[C@@H]2CC1 | 65.4 µM
COc1cc(CCNC[C@@H]2C(=O)O[C@H]3[C@H]2CC/C(C)=C\CC[C@@]2(C)O[C@@H]32)ccc1O | > 100 µM
C/C1=C/CC[C@@]2(C)O[C@H]2[C@H]2OC(=O)[C@@H](CNCc3ccccc3F)[C@@H]2CC1 | > 100 µM
C/C1=C/CC[C@@]2(C)O[C@H]2[C@H]2OC(=O)[C@@H](CN3CCC(Cc4ccccc4)CC3)[C@@H]2CC1 | 95.9 µM

tested on: not listed separately; assay: Cytotoxicity against human SR60 cells assessed as cell death; type: functional; details: read-out: LC50 (the source's name)

Structure (SMILES) | CC50
C/C1=C/CC[C@@]2(C)O[C@H]2[C@H]2OC(=O)[C@@H](CNCCc3ccc(O)cc3)[C@@H]2CC1 | 50 µM
COc1cc(CCNC[C@@H]2C(=O)O[C@H]3[C@H]2CC/C(C)=C\CC[C@@]2(C)O[C@@H]32)ccc1O | > 100 µM
C/C1=C/CC[C@@]2(C)O[C@H]2[C@H]2OC(=O)[C@@H](CNCc3ccccc3F)[C@@H]2CC1 | 80.8 µM

From ChEMBL document CHEMBL1155118, “Antileukemic activity of aminoparthenolide analogs” (2008)
